Measurements reported in ChEMBL document CHEMBL1201862, “PubChem BioAssay data set” (2004).
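Growth conditions: 96-well plates. Treatment: test compound, 48 hours, 5 concentrations. Analysis: linear interpolation between bracketing concentrations; unreached endpoints set to highest concentration. GI50: concentration for 50% inhibition of growth.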 The source made the active and inactive calls. Rule as the data show it: active = GI50 up to about 1.1 µM and inactive = higher.

What was measured:
Experiment in all cases: NCI-60 cell line screen, 48 h
786-0 = system: 786-0
A549 = system: A549
ACHN = system: ACHN
BT-549 = system: BT-549
CAKI-1 = system: CAKI-1
CCRF-CEM = system: CCRF-CEM
COLO 205 = system: COLO 205
DU-145 = system: DU-145
EKVX = system: EKVX
HCT-116 = system: HCT-116
HCT-15 = system: HCT-15
HL-60 = system: HL-60
HOP-62 = system: HOP-62
HOP-92 = system: HOP-92
HT-29 = system: HT-29
Hs-578T = system: Hs-578T
IGROV-1 = system: IGROV-1
K562 = system: K562
KM12 = system: KM12
LOX IMVI = system: LOX IMVI
M14 = system: M14
MCF7 = system: MCF7
MDA-MB-231 = system: MDA-MB-231
MDA-MB-435 = system: MDA-MB-435
MDA-N = system: MDA-N
MOLT-4 = system: MOLT-4
Malme-3M = system: Malme-3M
NCI-H226 = system: NCI-H226
NCI-H23 = system: NCI-H23
NCI-H460 = system: NCI-H460
NCI-H522 = system: NCI-H522
NCI/ADR-RES = system: NCI/ADR-RES
OVCAR-3 = system: OVCAR-3
OVCAR-4 = system: OVCAR-4
OVCAR-5 = system: OVCAR-5
OVCAR-8 = system: OVCAR-8
PC-3 = system: PC-3
RPMI-8226 = system: RPMI-8226
RXF 393 = system: RXF 393
SF-268 = system: SF-268
SF-295 = system: SF-295
SF-539 = system: SF-539
SK-MEL-2 = system: SK-MEL-2
SK-MEL-5 = system: SK-MEL-5
SK-OV-3 = system: SK-OV-3
SN12C = system: SN12C
SNB-19 = system: SNB-19
SNB-75 = system: SNB-75
SR = system: SR
SW-620 = system: SW-620
T47D = system: T47D
TK-10 = system: TK-10
U-251 = system: U-251
UACC-257 = system: UACC-257
UACC-62 = system: UACC-62
UO-31 = system: UO-31
HCC 2998 = system: HCC 2998
SK-MEL-28 = system: SK-MEL-28

Cc1ccc(O)c(Cc2nc3ccccc3nc2-c2cccc(Br)c2)c1
GI50 (786-0): 57 µM (inactive) | GI50 (A549): > 100 µM (inactive) | GI50 (ACHN): 55.1 µM (inactive) | GI50 (BT-549): > 100 µM (inactive) | GI50 (CAKI-1): 85.3 µM (inactive) | GI50 (CCRF-CEM): 28.4 µM (inactive) | GI50 (COLO 205): > 100 µM (inactive) | GI50 (DU-145): > 100 µM (inactive) | GI50 (EKVX): > 100 µM (inactive) | GI50 (HCT-116): 48.5 µM (inactive) | GI50 (HCT-15): 22.3 µM | GI50 (HL-60): 52.1 µM (inactive) | GI50 (HOP-62): > 100 µM (inactive) | GI50 (HOP-92): > 100 µM (inactive) | GI50 (HT-29): > 100 µM (inactive) | GI50 (Hs-578T): 12.5 µM (inactive) | GI50 (IGROV-1): 46 µM (inactive) | GI50 (K562): 34.4 µM (inactive) | GI50 (KM12): > 100 µM (inactive) | GI50 (LOX IMVI): > 100 µM (inactive) | GI50 (M14): > 100 µM (inactive) | GI50 (MCF7): 37.1 µM (inactive) | GI50 (MDA-MB-231): > 100 µM (inactive) | GI50 (MDA-MB-435): > 100 µM (inactive) | GI50 (MDA-N): > 100 µM (inactive) | GI50 (MOLT-4): 25.2 µM (inactive) | GI50 (Malme-3M): > 100 µM (inactive) | GI50 (NCI-H226): > 100 µM (inactive) | GI50 (NCI-H23): > 100 µM (inactive) | GI50 (NCI-H460): > 100 µM (inactive) | GI50 (NCI-H522): 44.2 µM (inactive) | GI50 (NCI/ADR-RES): > 100 µM (inactive) | GI50 (OVCAR-3): > 100 µM (inactive) | GI50 (OVCAR-4): > 100 µM (inactive) | GI50 (OVCAR-5): > 100 µM (inactive) | GI50 (OVCAR-8): > 100 µM (inactive) | GI50 (PC-3): > 100 µM (inactive) | GI50 (RPMI-8226): 47.3 µM (inactive) | GI50 (RXF 393): > 100 µM (inactive) | GI50 (SF-268): > 100 µM (inactive) | GI50 (SF-295): > 100 µM (inactive) | GI50 (SF-539): > 100 µM (inactive) | GI50 (SK-MEL-2): > 100 µM (inactive) | GI50 (SK-MEL-5): > 100 µM (inactive) | GI50 (SK-OV-3): > 100 µM (inactive) | GI50 (SN12C): > 100 µM (inactive) | GI50 (SNB-19): 19.9 µM (inactive) | GI50 (SNB-75): > 100 µM (inactive) | GI50 (SR): 33.2 µM (inactive) | GI50 (SW-620): 86.3 µM (inactive) | GI50 (T47D): > 100 µM (inactive) | GI50 (TK-10): > 100 µM (inactive) | GI50 (U-251): > 100 µM (inactive) | GI50 (UACC-257): 45.7 µM (inactive) | GI50 (UACC-62): > 100 µM (inactive) | GI50 (UO-31): 89.1 µM (inactive)

NC(CCOCCP(=O)(O)CCC1C=CC=CC1)C(=O)O (stereo not given)
GI50 (A549): > 100 µM (inactive) | GI50 (ACHN): > 100 µM (inactive) | GI50 (BT-549): > 100 µM (inactive) | GI50 (CAKI-1): > 100 µM (inactive) | GI50 (CCRF-CEM): > 100 µM (inactive) | GI50 (COLO 205): > 100 µM (inactive) | GI50 (DU-145): > 100 µM (inactive) | GI50 (EKVX): > 100 µM (inactive) | GI50 (HCC 2998): > 100 µM (inactive) | GI50 (HCT-116): > 100 µM (inactive) | GI50 (HCT-15): > 100 µM | GI50 (HL-60): > 100 µM (inactive) | GI50 (HOP-92): > 100 µM (inactive) | GI50 (HT-29): > 100 µM (inactive) | GI50 (Hs-578T): > 100 µM (inactive) | GI50 (IGROV-1): > 100 µM (inactive) | GI50 (K562): > 100 µM (inactive) | GI50 (KM12): > 100 µM (inactive) | GI50 (LOX IMVI): 73.5 µM (inactive) | GI50 (M14): > 100 µM (inactive) | GI50 (MCF7): > 100 µM (inactive) | GI50 (MDA-MB-231): > 100 µM (inactive) | GI50 (MDA-MB-435): > 100 µM (inactive) | GI50 (MDA-N): > 100 µM (inactive) | GI50 (MOLT-4): > 100 µM (inactive) | GI50 (NCI-H23): > 100 µM (inactive) | GI50 (NCI-H460): > 100 µM (inactive) | GI50 (NCI-H522): > 100 µM (inactive) | GI50 (NCI/ADR-RES): > 100 µM (inactive) | GI50 (OVCAR-3): > 100 µM (inactive) | GI50 (OVCAR-4): > 100 µM (inactive) | GI50 (OVCAR-5): > 100 µM (inactive) | GI50 (OVCAR-8): > 100 µM (inactive) | GI50 (PC-3): > 100 µM (inactive) | GI50 (RPMI-8226): > 100 µM (inactive) | GI50 (RXF 393): > 100 µM (inactive) | GI50 (SF-268): > 100 µM (inactive) | GI50 (SF-295): > 100 µM (inactive) | GI50 (SF-539): > 100 µM (inactive) | GI50 (SK-MEL-28): > 100 µM (inactive) | GI50 (SK-MEL-2): > 100 µM (inactive) | GI50 (SK-MEL-5): > 100 µM (inactive) | GI50 (SK-OV-3): > 100 µM (inactive) | GI50 (SN12C): > 100 µM (inactive) | GI50 (SNB-19): > 100 µM (inactive) | GI50 (SNB-75): 64 µM (inactive) | GI50 (SR): > 100 µM (inactive) | GI50 (SW-620): > 100 µM (inactive) | GI50 (T47D): 43.3 µM (inactive) | GI50 (TK-10): > 100 µM (inactive) | GI50 (U-251): > 100 µM (inactive) | GI50 (UACC-257): > 100 µM (inactive) | GI50 (UACC-62): 43.8 µM (inactive) | GI50 (UO-31): > 100 µM (inactive)
